Data: US9718819B2 (Merck Sharp & Dohme Corp., priority 2012, dated 2017)

Each compound was assayed against HIV-1 RT wild-type enzyme (Human immunodeficiency virus type 1 group M subtype B (isolate HXB2) (HIV-1), UniProt P04585) (assay: HIV-1 reverse transcriptase inhibitory activity (RT polymerase assay)). Conditions: HIV-1 RT wild-type enzyme 83 pM; RNA-dependent DNA polymerase activity; read-out: IC50.
Assay type: biochemical
Experimental: Determination of HIV-1 Reverse Transcriptase Inhibitory Activity
The heterodimeric nucleic acid substrate used in the HIV-1 RT polymerase reactions was generated by annealing the DNA primer, biotinylated pD500 (Sigma Aldrich, USA, 5′-biotin-ttg aaa tga ctg cgg tac ggc-3′), SEQ ID NO. 1 to the nucleotide RNA template t500 (derived from hepatitis C virus [HCV] sequence, IBA, Germany, 5′-[…]-3′), SEQ ID NO 2). […] The mixture was then preincubated on an orbital shaker for 30 min at room temperature in microtiter plates (Costar 3365, Corning, USA). A polymerization reaction was initiated by the addition of RNA template/pD500 DNA primer hybrid (16.6 nM final of RNA/DNA hybrid) and dNTPs (2 μM dATP, dGTP, dCTP and 66.6 nM Ru-dUTP (Meso Scale Discovery, USA)). Plate was sealed and incubated for 5-10 min at room temperature on an orbital shaker. Plate was then incubated for 90 min at 37° C. and reactions quenched with 60 μl quenching buffer (50 mM EDTA, 0.7% BSA, 0.7% Tween-20, 0.017% sodium azide in PBS). The resulting solution was incubated at room temperature for an additional 5 min and then 50 μL was transferred to pre-blocked Avidin plates (L15AA, Meso Scale Discovery). Each well of Avidin plate was blocked for 1 h at room temperature with 100 μL 5% BSA in PBS. Blocking solution was removed by tapping vigorously on filter paper to remove all excess liquid. Reaction on pre-blocked avidin plate proceeded for 60 min at room temperature and then contents removed by tapping vigorously on filter paper to remove all excess liquid. After washing plate 3 times with 150 μL 1×PBS and blotting dry between cycles, 150 μL 1× Read Buffer T (4× Read Buffer T, Meso Scale Discovery) was added and incubated for 5 min at room temperature before counting on a Sector Imager […] (Meso Scale Discovery). Titration curves and IC50 values were calculated using a four parameter logisitc fit according to standard procedures. Briefly, % Inhibition=100×((sample raw value)−(mean value of the low control or 0% inhibition))/((mean value of wells representing 100% inhbition)−(mean value of 0% inhbition)). In this assay, low control wells contain DMSO (0% inhbition) and 100% inhibition wells contain 1 μM efavirenz.

Row | Compound | IC50
1 | CC(C)c1cc(Cn2cnc(C(F)(F)F)c(Oc3cc(Cl)cc(C#N)c3)c2=O)n[nH]c1=O [Example 10, 3-chloro-5-((1-((5-isopropyl-6-oxo-1,6-dihydropyridazin-3-yl)methyl)-6-oxo-4-(trifluoromethyl)-1,6-dihydropyrimidin-5-yl)oxy)benzonitrile] | 7 nM
2 | N#Cc1cc(Cl)cc(Oc2c(C(F)(F)F)ncn(Cc3cc(Oc4ccc(F)cc4)c(=O)[nH]n3)c2=O)c1 [Example 108, 3-chloro-5-((1-((5-(4-fluorophenoxy)-6-oxo-1,6-dihydropyridazin-3-yl)methyl)-6-oxo-4-(trifluoromethyl)-1,6-dihydropyrimidin-5-yl)oxy)benzonitrile] | 316 nM
3 | CCS(=O)(=O)c1cc(Cn2cnc(C(F)(F)F)c(Oc3cc(Cl)cc(C#N)c3)c2=O)n[nH]c1=O [Example 97, 3-chloro-5-((1-((5-(ethylsulfonyl)-6-oxo-1,6-dihydropyridazin-3-yl)methyl)-6-oxo-4-(trifluoromethyl)-1,6-dihydropyrimidin-5-yl)oxy)benzonitrile] | 247 nM
4 | N#Cc1cc(Cl)cc(Oc2c(C(F)(F)F)ncn(Cc3cc(-c4ccc(Cl)c(F)c4)c(=O)[nH]n3)c2=O)c1 [Example 46, 3-chloro-5-((1-((5-(4-chloro-3-fluorophenyl)-6-oxo-1,6-dihydropyridazin-3-yl)methyl)-6-oxo-4-(trifluoromethyl)-1,6-dihydropyrimidin-5-yl)oxy)benzonitrile] | 5 nM
5 | N#Cc1cc(Cl)cc(Oc2c(C(F)(F)F)ncn(Cc3cc(-c4ccc(F)c(F)c4)n[nH]c3=O)c2=O)c1 [Example 121, 3-chloro-5-((1-((6-(3,4-difluorophenyl)-3-oxo-2,3-dihydropyridazin-4-yl)methyl)-6-oxo-4-(trifluoromethyl)-1,6-dihydropyrimidin-5-yl)oxy)benzonitrile] | 5 nM
6 | N#Cc1cc(Cl)cc(Oc2c(C(F)(F)F)ncn(Cc3cc(-c4cccnc4)c(=O)[nH]n3)c2=O)c1 [Example 73, 3-chloro-5-((6-oxo-1-((6-oxo-5-(pyridin-3-yl)-1,6-dihydropyridazin-3-yl)methyl)-4-(trifluoromethyl)-1,6-dihydropyrimidin-5-yl)oxy)benzonitrile] | 11 nM
7 | N#Cc1cc(Cl)cc(Oc2c(C(F)(F)F)ncn(Cc3cc(-c4ccc5c(c4)CCO5)c(=O)[nH]n3)c2=O)c1 [Example 64, 3-chloro-5-((1-((5-(2,3-dihydrobenzofuran-5-yl)-6-oxo-1,6-dihydropyridazin-3-yl)methyl)-6-oxo-4-(trifluoromethyl)-1,6-dihydropyrimidin-5-yl)oxy)benzonitrile] | 3 nM
8 | COc1ccc(F)c(-c2cc(Cn3cnc(C(F)(F)F)c(Oc4cc(Cl)cc(C#N)c4)c3=O)n[nH]c2=O)c1 [Example 63, 3-chloro-5-((1-((5-(2-fluoro-5-methoxyphenyl)-6-oxo-1,6-dihydropyridazin-3-yl)methyl)-6-oxo-4-(trifluoromethyl)-1,6-dihydropyrimidin-5-yl)oxy)benzonitrile] | 10 nM
9 | N#Cc1cc(Cl)cc(Oc2c(C(F)(F)F)ncn(Cc3cc(C(N)=O)c(=O)[nH]n3)c2=O)c1 [Example 101, 6-((5-(3-chloro-5-cyanophenoxy)-6-oxo-4-(trifluoromethyl)pyrimidin-1(6H)-yl)methyl)-3-oxo-2,3-dihydropyridazine-4-carboxamide] | 153 nM
10 | CC(F)(F)c1cc(Cn2cnc(C(F)F)c(Oc3cc(Cl)cc(C#N)c3)c2=O)c(=O)[nH]n1 [Example 179, 3-chloro-5-((1-((6-(1,1-difluoroethyl)-3-oxo-2,3-dihydropyridazin-4-yl)methyl)-4-(difluoromethyl)-6-oxo-1,6-dihydropyrimidin-5-yl)oxy)benzonitrile] | 8 nM
11 | N#Cc1cc(Cl)cc(Oc2c(C(F)(F)F)ncn(Cc3cc(-c4ccc(F)c(F)c4)c(=O)[nH]n3)c2=O)c1 [Example 29, 3-chloro-5-((1-((5-(3,4-difluorophenyl)-6-oxo-1,6-dihydropyridazin-3-yl)methyl)-6-oxo-4-(trifluoromethyl)-1,6-dihydropyrimidin-5-yl)oxy)benzonitrile] | 3 nM
12 | N#Cc1cc(Cl)cc(Oc2c(C(F)(F)F)ncn(Cc3cc(-c4cc(F)cc(Cl)c4)c(=O)[nH]n3)c2=O)c1 [Example 27, 3-chloro-5-((1-((5-(3-chloro-5-fluorophenyl)-6-oxo-1,6-dihydropyridazin-3-yl)methyl)-6-oxo-4-(trifluoromethyl)-1,6-dihydropyrimidin-5-yl)oxy)benzonitrile] | 14 nM
13 | Cc1ccc(F)c(-c2cc(Cn3cnc(C(F)(F)F)c(Oc4cc(Cl)cc(C#N)c4)c3=O)n[nH]c2=O)c1 [Example 39, 3-chloro-5-((1-((5-(2-fluoro-5-methylphenyl)-6-oxo-1,6-dihydropyridazin-3-yl)methyl)-6-oxo-4-(trifluoromethyl)-1,6-dihydropyrimidin-5-yl)oxy)benzonitrile] | 10 nM
14 | N#Cc1cc(Cl)cc(Oc2c(C(F)(F)F)ncn(Cc3cnc(-c4ccc(OC(F)(F)F)cc4)[nH]c3=O)c2=O)c1 [Example 153, 3-chloro-5-((6-oxo-1-((6-oxo-2-(4-(trifluoromethoxy)phenyl)-1,6-dihydropyrimidin-5-yl)methyl)-4-(trifluoromethyl)-1,6-dihydropyrimidin-5-yl)oxy)benzonitrile] | 33 nM
15 | CNc1ncc(Cn2cnc(C(F)(F)F)c(Oc3cc(Cl)cc(C#N)c3)c2=O)c(=O)[nH]1 [Example 137, 3-chloro-5-((1-((2-(methylamino)-6-oxo-1,6-dihydropyrimidin-5-yl)methyl)-6-oxo-4-(trifluoromethyl)-1,6-dihydropyrimidin-5-yl)oxy)benzonitrile] | 9 nM
16 | N#Cc1cc(Cl)cc(Oc2c(C(F)(F)F)ncn(Cc3cnc(C(F)(F)F)[nH]c3=O)c2=O)c1 [Example 131, 3-Chloro-5-[16-oxo-1-(6-oxo-2-trifluoromethyl-1,6-dihydro-pyrimidin-5-ylmethyl)-4-trifluoromethyl-1,6-dihydro-pyrimidin-5-yloxy]-benzonitrile] | 435 nM
17 | N#Cc1cc(Cl)cc(Oc2c(OC(F)F)ncn(Cc3ccc(=O)[nH]n3)c2=O)c1 [Example 162, 3-chloro-5-(4-(difluoromethoxy)-6-oxo-1-((6-oxo-1,6-dihydropyridazin-3-yl)methyl)-1,6-dihydropyrimidin-5-yloxy)benzonitrile] | 79 nM
18 | Cc1ncc(Cn2cnc(C(F)(F)F)c(Oc3cc(Cl)cc(C#N)c3)c2=O)c(=O)[nH]1 [Example 133, 3-chloro-5-((1-((2-methyl-6-oxo-1,6-dihydropyrimidin-5-yl)methyl)-6-oxo-4-(trifluoromethyl)-1,6-dihydropyrimidin-5-yl)oxy)benzonitrile] | 8 nM
19 | N#Cc1cc(Cl)cc(Oc2c(C(F)(F)F)ncn(Cc3cnc(-c4ccccc4)[nH]c3=O)c2=O)c1 [Example 149, 3-chloro-5-((6-oxo-1-((6-oxo-2-phenyl-1,6-dihydropyrimidin-5-yl)methyl)-4-(trifluoromethyl)-1,6-dihydropyrimidin-5-yl)oxy)benzonitrile] | 14 nM
20 | CC(F)(F)c1cc(Cn2cnc(C(F)(F)F)c(Oc3cccc(C#N)c3F)c2=O)c(=O)[nH]n1 [Example 178, 3-((1-((6-(1,1-difluoroethyl)-3-oxo-2,3-dihydropyridazin-4-yl)methyl)-6-oxo-4-(trifluoromethyl)-1,6-dihydropyrimidin-5-yl)oxy)-2-fluorobenzonitrile] | 9 nM
21 | N#Cc1cc(Cl)cc(Oc2c(C(F)(F)F)ncn(Cc3cc(C(F)F)c(=O)[nH]n3)c2=O)c1 [Example 102, 3-chloro-5-((1-((5-(difluoromethyl)-6-oxo-1,6-dihydropyridazin-3-yl)methyl)-6-oxo-4-(trifluoromethyl)-1,6-dihydropyrimidin-5-yl)oxy)benzonitrile] | 20 nM
22 | N#Cc1cc(Cl)cc(Oc2c(C(F)F)ncn(Cc3cc(C(F)F)n[nH]c3=O)c2=O)c1 [Example 173, 3-chloro-5-((4-(difluoromethyl)-1-((6-(difluoromethyl)-3-oxo-2,3-dihydropyridazin-4-yl)methyl)-6-oxo-1,6-dihydropyrimidin-5-yl)oxy)benzonitrile] | 6 nM
23 | N#Cc1cc(Cl)cc(Oc2c(C(F)(F)F)ncn(Cc3cnc(O)[nH]c3=O)c2=O)c1 [Example 135, 3-chloro-5-((1-((2-hydroxy-6-oxo-1,6-dihydropyrimidin-5-yl)methyl)-6-oxo-4-(trifluoromethyl)-1,6-dihydropyrimidin-5-yl)oxy)benzonitrile] | 8 nM
